Laboratory results: patent publication US10689622B2, “Culture medium for proliferating stem cell, which contains sulfated compound” (AJINOMOTO CO., INC., priority 2012, dated 2020)

How the values were obtained:
bFGF [1] = biological target: T1, bFGF (Homo sapiens, UniProt P09038); assay: Evaluation of bFGF stabilization in Lonza serum-free medium (ELISA); format: biochemical; settings: for effectiveness ELISA: effectiveness in ELISA evaluation of mesenchymal stem cells (medium), 4° C. control ratio
T1 construct: purchased Lonza (via TAKARA BIO INC.) Ser. No. 00/190,632
Method in brief: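 Compound in PBS diluted 10-fold into serum-free medium and held sealed at 37 °C for 7 days (some sets 3 days). Remaining bFGF quantified by human bFGF sandwich ELISA against a standard curve. Controls were compound-free PBS-medium kept at 37 °C or 4 °C for the same period.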

bFGF [2] = biological target: T1, bFGF; assay: Evaluation of bFGF stabilization in Essential 8 medium (ELISA); format: biochemical; settings: 37° C. for 7 days
Method in brief: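 Test compound in PBS diluted 10-fold into serum-free medium (Essential 8 or ReproFF2), held sealed at 37° C for 7 days; remaining bFGF quantified by ELISA against a standard curve. Controls: PBS without compound diluted into each medium, held 7 days at 37° C or 4° C.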

iPS cell 201B7 strain = assay: iPS cell proliferation system (cell number); format: cell-based, human; settings: matrigel, Essential-8 medium
Protocol: The cell proliferation effect of various test compounds was evaluated using artificial pluripotent stem cell (iPS cell). 201B7 strain purchased from iPS Academia Japan, Inc. was grown in a culture container coated with a basal lamina matrix (matrigel manufactured by Nippon Becton Dickinson Company, Ltd., or a fragment containing an active domain of laminin 511 purchased from OSAKA UNIVERSITY) (Becton, Dickinson and Company, Falcon culture petri dish or Falcon culture plate), contained in a feeder-free medium for human ES/iPS cell (ReproCELL Inc, ReproFF2).
In this medium were suspended iPS cells in colony state, and a 2.5- to 3.5-fold diluted amount of the original culture was plated on a 6-well culture plate coated with a basal lamina matrix (Nippon Becton Dickinson Company, Ltd., Falcon culture plate). […] After culturing for 6 to 12 days, the medium was removed, the cells were detached from the culture plate by a trypsin-EDTA (Sigma-Aldrich Ltd.) or TrypLE Select (Invitrogen) treatment and the cell number was measured. The cell number was measured by the method described in “Kaitei Saibou baiyou Nyuumon Note, page 77-83, 2010, YODOSHA CO., LTD.” which is incorporated herein by reference in its entirety.
When the cells were seeded in a dissociation state of the cells (single cell state), a test compound solution after filter sterilization was added to a medium containing Y-27632 (Nacalai Tesque) to a given concentration, and dispensed to a 6 well culture plate. Thereto were plated iPS cells suspended in a medium containing Y-27632 at 100,000 cells/well, and cultured for 6 to 8 days. On the next day of seeding, the medium was exchanged to a medium (without Y-27632) added with the test compound alone. When medium exchange was necessary, the medium was exchanged every 2 or 3 days. […] After culturing for 6 to 8 days, the cell number was measured by a method similar to that mentioned above.
When the evaluation was performed in Essential 8 medium (Invitrogen), which is a different feeder-free medium for iPS cell, iPS cells cultured in a medium obtained by adding human serum albumin (Sigma-Aldrich Co. LLC) to Essential 8 medium were used.

[3] = Measurement of content level of sulfur in test compound (ICP); format: physicochemical; settings: ICPS-8100, evaluation samples containing 0.01 wt % test compound
Method in brief: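 Sulfur content was measured by ICP emission spectrometry on samples containing 0.01 wt % test compound. Values came from a calibration curve of sulfur standards at 0, 1, 10, 30 and 50 ppm.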

[4] = tested on: Human bone marrow-derived mesenchymal stem cells; assay: Mesenchymal stem cell proliferation system (cell number by DNA quantification); settings: for effectiveness cells: growth of mesenchymal stem cell, control ratio
Protocol: Human bone marrow-derived mesenchymal stem cells (Lonza, Human Mesenchymal Stem Cell) cultured in mesenchymal stem cell-dedicated medium (Lonza, MSCGM) or Dulbecco's Modified Eagle Medium (Invitrogen, GIBCO D-MEM) containing inactivated fetal bovine serum (Invitrogen, GIBCO FBS) and penicillin-streptomycin (Sigma-Aldrich Co. LLC.) were cultured in exchanged Lonza serum-free medium. The mesenchymal stem cells thus-acclimated to serum-free culture were suspended in Lonza serum-free medium, and seeded on a 24 well culture plate (Nippon Becton Dickinson Company, Ltd., Falcon culture plate) at 20,000 cells/well or a 6 well culture plate (Nippon Becton Dickinson Company, Ltd., Falcon culture plate) at 50,000 cells/well. Then, a test compound solution after filter sterilization and adjustment to a given concentration was added, and the cells were cultured in an incubator (Thermo Scientific, Forma incubator) under the 5% CO2/37° C. conditions for 7 to 8 days. When the medium exchange was necessary, the medium was exchanged 2 to 3 days after the seeding. In this case, the test compound solution was also added again in the same manner as in seeding. In this case, various compound solutions were added again in the same manner as in seeding. After culturing for 7 to 8 days, the medium was removed and DNA quantification was performed. As a control, the cells were cultured in the same manner in a medium without a test compound and added with phosphate buffered saline.
The medium in the 24 well culture plate was removed, and the cells were washed with phosphate buffered saline. The sodium lauryl sulfate solution (500 μl/well) was added, and the mixture was left standing at 37° C. for 4 hours. The sodium lauryl sulfate solution (1.0 ml) was also added to a cell pellet with a known cell number, and the mixture was left standing at 37° C. for 4 hours. As for the cells in the 24 well culture plate, a part (50 μl) of the lysate was transferred to a 96 well black microplate. The solution used for treating the cell pellets was successively diluted with sodium lauryl sulfate solution and used as solutions for drawing an analytical curve. Also, a part (50 μl) of the solutions for drawing an analytical curve was each transferred to the 96 well black microplate. […] The fluorescence was measured by a microplate reader (excitation wavelength: 355 nm, measurement wavelength: 460 nm) within 5 minutes from the addition. The cell number of the 24 well cell culture plate was calculated from the analytical curve drawn (conversion formula). The evaluation criteria were as follows.

[5] = Lonza serum-free medium, 37° C. for 7 days, test compound 25 ng/ml
[6] = Lonza serum-free medium, 37° C. for 7 days, test compound 250 ng/ml
[7] = Lonza serum-free medium, 37° C. for 7 days, test compound 25 μg/ml
[8] = Lonza serum-free medium, 37° C. for 7 days, test compound 250 μg/ml

T1 sequence (P09038 143-288): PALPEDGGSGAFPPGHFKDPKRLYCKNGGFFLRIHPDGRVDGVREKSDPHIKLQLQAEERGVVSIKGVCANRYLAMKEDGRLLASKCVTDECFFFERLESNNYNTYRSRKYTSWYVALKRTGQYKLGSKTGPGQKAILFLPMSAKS

Substance | bFGF concentration relative to that of 4° C. control (ELISA) (bFGF [1]; [5]) | bFGF concentration relative to that of 4° C. control (ELISA) (bFGF [1]; [6]) | bFGF concentration relative to that of 4° C. control (ELISA) (bFGF [1]; [7]) | bFGF concentration relative to that of 4° C. control (ELISA) (bFGF [1]; [8]) | effectiveness ELISA (bFGF [1]) | concentration showing a suppressive effect on a decrease in the bFGF concentration of the medium (bFGF [2]) | bFGF concentration relative to that of 4° C. control (ELISA) (bFGF [2]; test compound 250 pg/ml) | bFGF concentration relative to that of 4° C. control (ELISA) (bFGF [2]; test compound 25 ng/ml) | bFGF concentration relative to that of 4° C. control (ELISA) (bFGF [2]; test compound 250 ng/ml) | bFGF concentration relative to that of 4° C. control (ELISA) (bFGF [2]; test compound 25 μg/ml) | bFGF concentration relative to that of 4° C. control (ELISA) (bFGF [2]; test compound 250 μg/ml) | number of cells relative to control (iPS cell 201B7 strain; test compound 25 ng/ml) | number of cells relative to control (iPS cell 201B7 strain; test compound 250 ng/ml) | sulfur content Found (inorganic analysis) [3] | effectiveness cells [4] | further results
maltoheptaose SO3Na | + (bFGF concentration was not less than 30% and less than 50% relative to that of 4 °C control) | x (bFGF concentration was less than 10% relative to that of 4 °C control) | +++ (bFGF concentration was not less than 70% relative to that of 4 °C control) | ++ (bFGF concentration was not less than 50% and less than 70% relative to that of 4 °C control) | +++ (+++ 70%<) | not less than 250 ng/ml | x (bFGF concentration was less than 10% relative to that of 4 °C control) | x (bFGF concentration was less than 10% relative to that of 4 °C control) | + (bFGF concentration was not less than 30% and less than 50% relative to that of 4 °C control) | +++ (bFGF concentration was not less than 70% relative to that of 4 °C control) | +++ (bFGF concentration was not less than 70% relative to that of 4 °C control) | ⊚ (not less than 120%: ⊚) | — (100%-50%: —) | 16 wt % | ⊚ (⊚ not less than 120%) | concentration showing a suppressive effect on a decrease in the bFGF concentration in the medium (bFGF [1]; Lonza serum-free medium, 37° C. for 3 days): not less than 25 ng/ml; bFGF concentration relative to that of 4° C. control (ELISA) (bFGF [1]; Lonza serum-free medium, 37° C. for 3 days, test compound 25 ng/ml): − (bFGF concentration was not less than 10% and less than 30% relative to that of 4 °C control); bFGF concentration relative to that of 4° C. control (ELISA) (bFGF [1]; Lonza serum-free medium, 37° C. for 3 days, test compound 250 ng/ml): ++ (bFGF concentration was not less than 50% and less than 70% relative to that of 4 °C control); bFGF concentration relative to that of 4° C. control (ELISA) (bFGF [1]; Lonza serum-free medium, 37° C. for 3 days, test compound 25 μg/ml): ++ (bFGF concentration was not less than 50% and less than 70% relative to that of 4 °C control); bFGF concentration relative to that of 4° C. control (ELISA) (bFGF [1]; Lonza serum-free medium, 37° C. for 3 days, test compound 250 μg/ml): ++ (bFGF concentration was not less than 50% and less than 70% relative to that of 4 °C control); concentration showing promoted cell proliferation as compared to the control ([4]; mesenchymal stem cells, Lonza serum-free medium): 250 ng/mL
maltotriose SO3Na | x (bFGF concentration was less than 10% relative to that of 4 °C control) | x (bFGF concentration was less than 10% relative to that of 4 °C control) | + (bFGF concentration was not less than 30% and less than 50% relative to that of 4 °C control) | +++ (bFGF concentration was not less than 70% relative to that of 4 °C control) | +++ (+++ 70%<) | not less than 250 ng/ml | x (bFGF concentration was less than 10% relative to that of 4 °C control) | x (bFGF concentration was less than 10% relative to that of 4 °C control) | − (bFGF concentration was not less than 10% and less than 30% relative to that of 4 °C control) | +++ (bFGF concentration was not less than 70% relative to that of 4 °C control) | +++ (bFGF concentration was not less than 70% relative to that of 4 °C control) | ◯ (not less than 100%: ◯) | ◯ (not less than 100%: ◯) | 13 wt % | ⊚ (⊚ not less than 120%) | –
